Target: T1, HDAC6F H216A mutant (Homo sapiens, UniProt Q9UBN7, H216A)
T1 construct: made in house; host or cells: TAg Jurkat cells, transient transfection, anti-FLAG M2 immunoprecipitation
T1 sequence (Q9UBN7 1-1215 H216A): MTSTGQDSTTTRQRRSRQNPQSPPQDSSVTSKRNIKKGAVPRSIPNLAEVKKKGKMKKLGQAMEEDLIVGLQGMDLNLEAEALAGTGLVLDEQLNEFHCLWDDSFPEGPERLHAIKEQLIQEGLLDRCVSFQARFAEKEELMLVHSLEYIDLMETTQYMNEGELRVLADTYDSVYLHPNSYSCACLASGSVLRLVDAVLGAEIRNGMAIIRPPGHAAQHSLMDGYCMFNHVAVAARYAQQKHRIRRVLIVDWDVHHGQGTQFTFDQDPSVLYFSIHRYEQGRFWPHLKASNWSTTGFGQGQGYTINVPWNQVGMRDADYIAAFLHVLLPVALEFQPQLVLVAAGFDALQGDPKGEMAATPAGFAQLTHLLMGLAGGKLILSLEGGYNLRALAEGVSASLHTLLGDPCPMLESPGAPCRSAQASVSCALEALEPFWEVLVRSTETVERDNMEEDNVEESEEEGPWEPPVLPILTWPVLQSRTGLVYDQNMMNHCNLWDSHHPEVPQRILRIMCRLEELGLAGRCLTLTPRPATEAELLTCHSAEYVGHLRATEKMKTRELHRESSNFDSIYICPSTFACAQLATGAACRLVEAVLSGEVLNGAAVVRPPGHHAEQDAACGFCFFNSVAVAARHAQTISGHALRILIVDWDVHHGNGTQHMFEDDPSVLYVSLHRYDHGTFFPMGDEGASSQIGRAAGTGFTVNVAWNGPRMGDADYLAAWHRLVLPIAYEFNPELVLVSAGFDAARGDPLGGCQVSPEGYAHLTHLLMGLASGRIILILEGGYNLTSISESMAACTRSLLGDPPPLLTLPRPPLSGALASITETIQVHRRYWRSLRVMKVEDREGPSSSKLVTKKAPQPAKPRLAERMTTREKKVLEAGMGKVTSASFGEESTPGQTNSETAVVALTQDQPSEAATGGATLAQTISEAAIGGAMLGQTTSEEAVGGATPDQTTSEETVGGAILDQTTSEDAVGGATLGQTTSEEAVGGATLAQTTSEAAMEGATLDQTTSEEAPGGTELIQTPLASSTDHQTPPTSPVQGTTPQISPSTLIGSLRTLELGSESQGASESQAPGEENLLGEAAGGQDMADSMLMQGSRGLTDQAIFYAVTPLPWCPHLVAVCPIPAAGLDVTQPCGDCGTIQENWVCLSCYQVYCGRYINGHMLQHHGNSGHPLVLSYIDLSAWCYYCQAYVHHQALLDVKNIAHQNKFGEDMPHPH
Assay: in vitro deacetylase assay with [3H]-histones, HDAC6F H216A mutant
Assay type: biochemical
Settings: [3H]-labeled histones, n=3
Experimental: FLAG-tagged HDAC pBJ5 constructs were transiently transfected by electroporation with 5 μg DNA for expression of recombinant proteins (C. M. Grozinger, C. A. Hassig and S. L. Schreiber, Proc. Natl. Acad. Sci. USA, 27, 4868 (1999); and C. A. Hassig et al., Proc. Natl. Acad. Sci. USA 95, 3519 (1998)]. Cells were mock transfected without DNA or with a non-FLAG-tagged pCMV-LacZ construct as a negative control. Forty-eight hours after transfection recombinant proteins were immunoprecipitated using anti-FLAG M2 agarose affinity gel beads as described [C. A. Hassig et al., Proc. Natl. Acad. Sci. USA 95, 3519 (1998)]. Western blotting using anti-acetylated α-tubulin (1:1000) anti-tubulin (1:1000), and anti-acetylated (K9, K14) histone H3 (1:1000) antibodies was performed using standard methods (K. M. Koeller et al., Chemistry & Biology, 10 (5) (2003) pp. 397-410). […]
[^3H]Acetate-incorporated histones were isolated from butyrate-treated HeLa cells as described [J. Taunton, C. […] Immunoprecipitates were incubated with acetylated histones and HDAC activity determined by scintillation counting as described [J. Taunton, C. […] After centrifugation, the supernatant (diluted to 0.4 μg tubulin) and α-FLAG M2 agarose affinity gel beads were analyzed by western blotting with an anti-FLAG M2 antibody (1:1750) to ensure equal protein levels.

Row | Compound | inhibition of HDAC activity of HDAC6F H216A mutant
1 | CC(/C=C/C(=O)NO)=C\[C@@H](C)C(=O)c1ccc(N(C)C)cc1 [TSA, trichostatin A, reference compound] | only partial inhibited by TSA or tubacin
2 | O=C(CCCCCCC(=O)Nc1ccc([C@@H]2OC(c3ccc(CO)cc3)C[C@H](CSc3nc(-c4ccccc4)c(-c4ccccc4)o3)O2)cc1)NO (some centres unmarked) [tubacin] | only partial inhibited by TSA or tubacin

— patent US8178579B2, “Dioxanes and uses thereof” (President and Fellows of Harvard College, priority 2001, dated 2012)
